Laboratory results from US20250066358A1, “Inhibitors of Menin-MLL Interaction” (Bala Therapeutics, Inc., priority 2021, published 2025).

Assays:
[1] = system: MOLM-13; assay: MOLM-13 Cellular Growth Inhibition Assay (CellTiter-Glo); format: cell-based; conditions: Homo sapiens, 168 h, MOLM-13 cells, 7 days of incubation
Experimental: (§1) HEK293 (Institute of Cytology Russian Academy of Science), MV4-11 (ATCC, CRL-9591), MOLM-13 (AcceGen, ABC-TC517S) were seeded at a density of 500 cells per well (HEK293) and 2000 cells per well (MV4-11, MOLM-13) in a 384-well clear bottom plate (Greiner Cat #781090) in 45 μl total volume of DMEM (PanEco, Cat #C420, Russia) or RPMI (PanEco, Cat #C330, Russia) with 10% FBS(HyClone Cat #SV30160.03). HEK293 were allowed to adhere overnight at 37° C., 5% CO2. 500× compounds solutions in DMSO (Sigma Cat #D2650) were prepared into Cmpnds plate (Diamond Well Plate, Axigen, Cat #P-384-120 SQ-C—S) and DMSO only control was included. 1 μl of 500× compounds (Cmpnds plate) was added to 49 μl of culture medium into Dilution plate (Diamond Well Plate, Axigen, Cat #P-384-120 SQ-C—S), mixed and then 5 μl of 10× compounds solutions were transferred to cells followed by centrifugation at 100 g for 1 min. Final DMSO concentration was 0.2%. After 3 days of incubation, 10 μl of 1× compounds were added to cells. After 7 days of incubation, 12 μl of CellTiter-Glo (Promega, CAT #G7572) were added to the cells, plate was centrifuged at 100 g for 1 min and luminescence signal was measured using Microplate Reader (CLARIOStar).

[2] = HEK293 Cellular Growth Inhibition Assay (CellTiter-Glo); format: cell-based; conditions: human, HEK293 cells, 7 days of incubation
Experimental: as §1

[3] = target: T1, recombinant MEN1 protein and fluorescein-labeled MLL4-43 peptide (Homo sapiens, UniProt O00255); assay: Primary fluorescence polarization assay of MEN1 / MLL4-43 interaction inhibition; format: binding; conditions: MEN1 10 nM, MLL4-43 0.5 nM, 1 hour at room temperature
T1 construct: purchased Creativebiomart MEN1-35H
T1 sequence (O00255 1-610): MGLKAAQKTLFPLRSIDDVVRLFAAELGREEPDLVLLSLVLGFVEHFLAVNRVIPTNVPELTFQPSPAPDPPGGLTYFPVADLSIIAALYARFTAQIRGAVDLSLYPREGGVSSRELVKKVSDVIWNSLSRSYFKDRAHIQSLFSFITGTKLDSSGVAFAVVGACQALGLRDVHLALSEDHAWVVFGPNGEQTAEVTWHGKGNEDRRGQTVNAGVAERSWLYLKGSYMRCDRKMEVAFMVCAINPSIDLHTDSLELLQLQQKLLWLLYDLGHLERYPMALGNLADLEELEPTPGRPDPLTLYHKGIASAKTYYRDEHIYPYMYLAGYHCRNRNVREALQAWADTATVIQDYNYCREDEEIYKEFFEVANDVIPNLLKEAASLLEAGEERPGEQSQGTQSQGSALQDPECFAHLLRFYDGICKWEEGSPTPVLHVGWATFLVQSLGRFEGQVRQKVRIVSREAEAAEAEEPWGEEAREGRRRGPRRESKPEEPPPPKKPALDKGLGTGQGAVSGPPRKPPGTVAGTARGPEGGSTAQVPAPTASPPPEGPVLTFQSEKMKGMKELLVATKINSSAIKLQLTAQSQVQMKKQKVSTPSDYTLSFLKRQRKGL
Experimental: Compound activity was determined using recombinant MEN1 protein (Creativebiomart, Cat #MEN1-35H) and a custom fluorescein-labeled MLL4-43 peptide (Eton Bioscience Inc.). Interaction between MEN1 and MLL4-43 in the presence of compounds was determined by fluorescence polarization assay using a Microplate Reader ClarioStar Plus. The reaction was carried out in assay buffer (50 mM TRIS-HCl PH 7.4-7.6, 50 mM NaCl, 1 mM DTT, 0.1 mg/ml BSA). The compounds were dispensed on a 384 well Diamond Well Plate (Axigen, Cat #P-384-120 SQ-C—S) using the Biomek FX liquid handling system at 100× solutions of compounds in DMSO. 2× MEN1 mix (final concentration of MEN1 10 nM) was prepared in Assay buffer and 10 μl of mixture per well was added into 384w white Reaction plate with NBS(Corning, Cat #4513). 10 μl of Assay buffer w/o MENI was used for negative control. Plates were centrifuged for 1 min at 100 g. Next step the Compounds were added to Reaction plate using Biomek station via following steps: 3 μl of 100× compounds (in DMSO) were mixed thoroughly with 27 μl Assay Buffer, then 2 μl of this mixture was added to Reaction plate with 10 μl of MENI mix. Plates were centrifuged for 1 min at 100 g and incubated for 20 min at room temperature. Next 8 μL of MLL4-43 peptide per well was added to final concentration of MLL 0.5 nM. Plates were incubated for 1 hour at room temperature. Then fluorescence polarization was measured using Microplate Reader.

[4] = system: MV4-11; assay: MV4-11 Cellular Growth Inhibition Assay (CellTiter-Glo); format: cell-based; conditions: Homo sapiens, 168 h, MV4-11 cells, 7 days of incubation
Experimental: as §1

SMILES: CCS(=O)(=O)N[C@H]1CC[C@H](CN2CCC3(CC2)CN(c2ncnc4ccc(CC(C)c5ccccc5)cc24)C3)CC1 (mixture of isomers) [Compound 59, N-((1R,4R)-4-((2-(6-((RS)-2-phenylpropyl)quinazolin-4-yl)-2,7-diazaspiro[3.5]nonan-7-yl)methyl)cyclohexyl)ethanesulfonamide]
- CC50 [1]: ≤ 1 µM
- CC50 at 7 days [2]: ≤ 5 µM
- EC50 [3]: 0.075 to 0.5 µM
- CC50 [4]: ≤ 1 µM

SMILES: CCS(=O)(=O)Nc1ccc(CN2CCC3(CC2)CN(c2ncnc4ccc(CC(F)(F)F)cc24)C3)cc1OCC(C)N1CCN(S(C)(=O)=O)CC1 (racemic) [Compound 70, rac-(R)-N-(2-(2-(4-(methylsulfonyl)piperazin-1-yl)propoxy)-4-((2-(6-(2,2,2-trifluoroethyl)quinazolin-4-yl)-2,7-diazaspiro[3.5]nonan-7-yl)methyl)phenyl)ethanesulfonamide]
- CC50 [1]: 5 to 10 µM
- CC50 at 7 days [2]: 15 to 30 µM
- EC50 [3]: > 5 µM
- CC50 [4]: 2.5 to 5 µM

SMILES: CCS(=O)(=O)N[C@H]1CC[C@H](CN2CCC(Nc3ncnc4ccc(CC(F)(F)F)cc34)C2)CC1 (mixture of isomers) [Compound 71, N-((1R,4R)-4-(((RS)-3-((6-(2,2,2-trifluoroethyl)quinazolin-4-yl)amino)pyrrolidin-1-yl)methyl)cyclohexyl)ethanesulfonamide]
- CC50 [1]: > 20 µM
- CC50 at 7 days [2]: > 50 µM
- EC50 [3]: > 5 µM
- CC50 [4]: > 10 µM

SMILES: CCS(=O)(=O)NC1CCc2cc(CN3CCC4(CC3)CN(c3ncnc5ccc(CC(F)(F)F)cc35)C4)cc(F)c2C1 (racemic) [Compound 77, rac-(R)-N-(8-fluoro-6-((2-(6-(2,2,2-trifluoroethyl)quinazolin-4-yl)-2,7-diazaspiro[3.5]nonan-7-yl)methyl)-1,2,3,4-tetrahydronaphthalen-2-yl)ethanesulfonamide]
- EC50 [3]: 1 to 5 µM

SMILES: CCS(=O)(=O)Nc1ccc(CN2CCC3(CC2)CCN(c2ncnc4ccc(CC(F)(F)F)cc24)CC3)cc1 [Compound 1, N-[4-[[3-[6-(2,2,2-trifluoroethyl)quinazolin-4-y1]-3,9-diazaspiro[5.5]undecan-9-yl]methyl]phenyl]ethanesulfonamide]
- CC50 [1]: 5 to 10 µM
- CC50 at 7 days [2]: 5 to 15 µM
- EC50 [3]: 1 to 5 µM
- CC50 [4]: 2.5 to 5 µM

SMILES: CCS(=O)(=O)Nc1ccc(CN2CCC3(CC2)CCN(c2ncnc4cc(CC(F)(F)F)ccc24)CC3)cc1 [Compound 2]
- CC50 at 7 days [2]: 15 to 30 µM
- EC50 [3]: > 5 µM
- CC50 [4]: > 10 µM

SMILES: CCS(=O)(=O)N[C@H]1CC[C@H](CN2CCC3(CC2)CCN(c2ncnc4ccc(CC(F)(F)F)cc24)CC3)CC1 [Compound 3, N-((1R,4R)-4-((9-(6-(2,2,2-trifluoroethyl)quinazolin-4-yl)-3,9-diazaspiro[5.5]undecan-3-yl)methyl)cyclohexyl)ethanesulfonamide]
- CC50 [1]: 10 to 20 µM
- CC50 at 7 days [2]: 5 to 15 µM
- EC50 [3]: 0.5 to 1 µM
- CC50 [4]: 5 to 10 µM

SMILES: CCS(=O)(=O)N[C@H]1CC[C@H](CN2CCC3(CC2)CCN(c2ncnc4cc(CC(F)(F)F)ccc24)CC3)CC1 [Compound 4, N-((1R,4R)-4-((9-(7-(2,2,2-trifluoroethyl)quinazolin-4-yl)-3,9-diazaspiro[5.5]undecan-3-yl)methyl)cyclohexyl)ethanesulfonamide]
- EC50 [3]: 1 to 5 µM

SMILES: CCS(=O)(=O)Nc1ccc(CN2CCC3(CC2)CN(c2ncnc4ccccc24)C3)cc1 [Compound 21, N-(4-((2-(quinazolin-4-yl)-2,7-diazaspiro[3.5]nonan-7-yl)methyl)phenyl)ethanesulfonamide]
- EC50 [3]: > 5 µM

SMILES: CCS(=O)(=O)Nc1cccc(CN2CCC3(CC2)CN(c2ncnc4ccccc24)C3)c1 [Compound 23, N-(3-((2-(quinazolin-4-yl)-2,7-diazaspiro[3.5]nonan-7-yl)methyl)phenyl)ethanesulfonamide]
- EC50 [3]: > 5 µM

SMILES: CCS(=O)(=O)Nc1ccc(CN2CCC3(CC2)CN(c2ncnc4ncccc24)C3)cc1 [Compound 24, N-[4-[(2-pyrido[2,3-d]pyrimidin-4-yl-2,7-diazaspiro[3.5]nonan-7-yl)methyl]phenyl]ethanesulfonamide]
- EC50 [3]: > 5 µM

SMILES: CCS(=O)(=O)Nc1ccc(CN2CCC3(CC2)CN(c2nc(NC)nc4ncccc24)C3)cc1 [Compound 31]
- EC50 [3]: > 5 µM

SMILES: CCS(=O)(=O)Nc1ccc(CN2CCC(Nc3ncnc4cc(CC(F)(F)F)ccc34)CC2)cc1 [Compound 33, N-(4-((4-((7-(2,2,2-trifluoroethyl)quinazolin-4-yl)amino)piperidin-1-yl)methyl)phenyl)ethanesulfonamide]
- EC50 [3]: > 5 µM

SMILES: CCS(=O)(=O)N[C@H]1CC[C@H](CN2CCC3(CC2)CN(c2ncnc4ccc(CCc5nc(C)no5)cc24)C3)CC1 [Compound 63, N-((1R,4R)-4-((2-(6-(2-(3-methyl-1,2,4-oxadiazol-5-yl)ethyl)quinazolin-4-yl)-2,7-diazaspiro[3.5]nonan-7-yl)methyl)cyclohexyl)ethanesulfonamide]
- EC50 [3]: 1 to 5 µM

SMILES: CCS(=O)(=O)Nc1ccc(CN2CCC3(CC2)CN(c2ncnc4ccc(CC(F)(F)F)cc24)C3)cc1C(=O)NCCN1CCOCC1 [Compound 92, 2-(ethylsulfonamido)-N-(2-morpholinoethyl)-5-((2-(6-(2,2,2-trifluoroethyl)quinazolin-4-yl)-2,7-diazaspiro[3.5]nonan-7-yl)methyl)benzamide]
- EC50 [3]: > 5 µM

SMILES: CCN(C[C@H]1CC[C@H](NS(=O)(=O)CC)CC1)c1ccc(CN2CCC3(CC2)CN(c2ncnc4ccc(CC(F)(F)F)cc24)C3)cc1 [Compound 100, N-((1R,4R)-4-((ethyl(4-((2-(6-(2,2,2-trifluoroethyl)quinazolin-4-yl)-2,7-diazaspiro[3.5]nonan-7-yl)methyl)phenyl)amino)methyl)cyclohexyl)ethanesulfonamide]
- EC50 [3]: 1 to 5 µM

SMILES: N#Cc1cc(CN2CCC3(CC2)CN(c2ncnc4ccc(CC(F)(F)F)cc24)C3)ccc1F [Compound 102, 2-fluoro-5-((2-(6-(2,2,2-trifluoroethyl)quinazolin-4-yl)-2,7-diazaspiro[3.5]nonan-7-yl)methyl)benzonitrile]
- EC50 [3]: 1 to 5 µM

SMILES: CCS(=O)(=O)N1CCc2cc(CN3CCC4(CC3)CN(c3ncnc5ccc(CC(F)(F)F)cc35)C4)ccc2C1 [Compound 110, 4-(7-((2-(ethylsulfonyl)-1,2,3,4-tetrahydroisoquinolin-6-yl)methyl)-2,7-diazaspiro[3.5]nonan-2-yl)-6-(2,2,2-trifluoroethyl)quinazoline]
- EC50 [3]: 0.075 to 0.5 µM

SMILES: CCS(=O)(=O)N1CCc2ccc(CN3CCC4(CC3)CN(c3ncnc5ccc(CC(F)(F)F)cc35)C4)cc2C1 [Compound 111, 4-(7-((2-(ethylsulfonyl)-1,2,3,4-tetrahydroisoquinolin-7-yl)methyl)-2,7-diazaspiro[3.5]nonan-2-y1)-6-(2,2,2-trifluoroethyl)quinazoline]
- EC50 [3]: 1 to 5 µM

SMILES: c1ccc(CCc2ccc3ncnc(N4CC5(CCNCC5)C4)c3c2)cc1 [Compound P148, 4-(2,7-Diazaspiro[3.5]non-2-yl)-6-(2-phenylethyl)quinazoline]
- EC50 [3]: > 5 µM
